From patent US20100099559A1, “Method for protecting soybeans from being infected by fungi” (BASF SE, priority 2007, published 2010)

Tested on: Cercospora sojina
Assay: Activity against Cercospora sojina, microtiter plate test
Assay type: cell-based
Conditions: single active, absorption at 405 nm on day 7 after inoculation, 18° C.
Method: The expected efficacies of active compound combinations were determined using Colby's formula (Colby, S. R. “Calculating synergistic and antagonistic responses of herbicide combinations”, Weeds, 15, pp. 20-22, 1967) and compared with the observed efficacies. E=x+y−x·y/100 Colby's formula • E expected efficacy, expressed in % of the untreated control, when using the mixture of the active compounds A and B at the concentrations a and b • x efficacy, expressed in % of the untreated control, when using the active compound A at the concentration a • y efficacy, expressed in % of the untreated control, when using the active compound B at the concentration b A solution containing 10 mg a.i. per 1 ml dimethyl sulfoxide is prepared. The stock solution is pipetted onto a microtiter plate (MTP) and diluted with water. In a second step a spore suspension of Cercospora sojina (containing a biomalt-based aqueous nutrient medium) was given to the stated active compound concentration. The plates were placed in a water vapor-saturated chamber at temperatures of 18° C. Using an absorption photometer, the MTPs were measured at 405 nm on day 7 after the inoculation. The measured parameters were compared to the growth of the active compound-free control variant and the fungus- and active compound-free blank value to determine the relative growth in % of the pathogens in the individual active compounds.

Row | Compound | Observed activity (% infection) (concentration 0.063 ppm) | Observed activity (% infection) (concentration 0.016 ppm)
1 | Fc1ccc([C@]2(Cn3cncn3)O[C@H]2c2ccccc2Cl)cc1 (racemic) [epoxiconazole, reference compound] | 0% | –
2 | Cn1cc(C(=O)Nc2ccccc2[C@@H]2C[C@H]2C2CC2)c(C(F)F)n1 [Compound (Ia), N-(trans-2-bicycloprop-2-ylphenyl)-3-difluoromethyl-1-methyl-1H-pyrazole-4-carboxamide] | 31% | 0%
